# Measurements taken from paper PMC2822479 (American Journal of Physiology - Endocrinology and …, 2009).
# Where a SMILES comes first, the peptide text is derived from it.
# Molecular target: human KISS1R (Homo sapiens, UniProt Q969F8)
# Experiment: Receptor binding assay, competition against [125I]KP-54 in CHO-KISS1R membranes
# Conditions: SEM
# human KISS1R, sequence (Q969F8 whole entry): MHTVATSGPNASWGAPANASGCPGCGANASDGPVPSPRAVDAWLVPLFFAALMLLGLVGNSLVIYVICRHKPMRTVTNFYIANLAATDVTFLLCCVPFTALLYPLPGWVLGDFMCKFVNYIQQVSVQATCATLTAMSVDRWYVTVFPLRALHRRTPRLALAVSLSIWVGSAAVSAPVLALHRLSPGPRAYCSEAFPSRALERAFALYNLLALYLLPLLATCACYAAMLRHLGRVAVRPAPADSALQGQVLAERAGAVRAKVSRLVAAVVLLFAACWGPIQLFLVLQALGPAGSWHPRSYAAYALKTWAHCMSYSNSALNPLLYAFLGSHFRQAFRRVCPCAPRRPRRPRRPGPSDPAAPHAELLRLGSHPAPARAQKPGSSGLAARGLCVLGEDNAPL
row,IC50,Structure (SMILES)
1,23.2 nM,CC(C)C[C@H](NC(=O)CNC(=O)[C@H](Cc1ccccc1)NC(=O)[C@H](CO)NC(=O)[C@H](CC(N)=O)NC(=O)[C@H](Cc1c[nH]c2ccccc12)NC(=O)[C@H](CC(N)=O)NC(=O)[C@H](C)N)C(=O)N[C@@H](CCCNC(=N)N)C(=O)N[C@@H](Cc1ccccc1)C(N)=O [ANA1] (H-ANWNSFGLRF-NH2)
2,145 nM,CC(C)C[C@H](NC(=O)CNC(=O)[C@H](Cc1ccccc1)NC(=O)[C@H](CO)NC(=O)[C@H](CC(N)=O)NC(=O)[C@H](Cc1c[nH]c2ccccc12)NC(=O)[C@H](C)NC(=O)[C@@H](N)Cc1ccc(O)cc1)C(=O)N[C@@H](CCCNC(=N)N)C(=O)N[C@@H](Cc1ccccc1)C(N)=O [ANA2] (H-YAWNSFGLRF-NH2)
3,2.7 nM,CC(C)C[C@H](NC(=O)CNC(=O)[C@H](Cc1ccccc1)NC(=O)[C@H](CO)NC(=O)[C@H](CC(N)=O)NC(=O)[C@H](C)NC(=O)[C@H](CC(N)=O)NC(=O)[C@@H](N)Cc1ccc(O)cc1)C(=O)N[C@@H](CCCNC(=N)N)C(=O)N[C@@H](Cc1ccccc1)C(N)=O [ANA3] (H-YNANSFGLRF-NH2)
4,43.5 nM,CC(C)C[C@H](NC(=O)CNC(=O)[C@H](Cc1ccccc1)NC(=O)[C@H](CO)NC(=O)[C@H](C)NC(=O)[C@H](Cc1c[nH]c2ccccc12)NC(=O)[C@H](CC(N)=O)NC(=O)[C@@H](N)Cc1ccc(O)cc1)C(=O)N[C@@H](CCCNC(=N)N)C(=O)N[C@@H](Cc1ccccc1)C(N)=O [ANA4] (H-YNWASFGLRF-NH2)
5,0.8 nM,CC(C)C[C@H](NC(=O)CNC(=O)[C@H](Cc1ccccc1)NC(=O)[C@H](C)NC(=O)[C@H](CC(N)=O)NC(=O)[C@H](Cc1c[nH]c2ccccc12)NC(=O)[C@H](CC(N)=O)NC(=O)[C@@H](N)Cc1ccc(O)cc1)C(=O)N[C@@H](CCCNC(=N)N)C(=O)N[C@@H](Cc1ccccc1)C(N)=O [ANA5] (H-YNWNAFGLRF-NH2)
6,110 nM,CC(C)C[C@H](NC(=O)CNC(=O)[C@H](C)NC(=O)[C@H](CO)NC(=O)[C@H](CC(N)=O)NC(=O)[C@H](Cc1c[nH]c2ccccc12)NC(=O)[C@H](CC(N)=O)NC(=O)[C@@H](N)Cc1ccc(O)cc1)C(=O)N[C@@H](CCCNC(=N)N)C(=O)N[C@@H](Cc1ccccc1)C(N)=O [ANA6] (H-YNWNSAGLRF-NH2)
7,4.6 nM,CC(C)C[C@H](NC(=O)[C@H](C)NC(=O)[C@H](Cc1ccccc1)NC(=O)[C@H](CO)NC(=O)[C@H](CC(N)=O)NC(=O)[C@H](Cc1c[nH]c2ccccc12)NC(=O)[C@H](CC(N)=O)NC(=O)[C@@H](N)Cc1ccc(O)cc1)C(=O)N[C@@H](CCCNC(=N)N)C(=O)N[C@@H](Cc1ccccc1)C(N)=O [ANA7] (H-YNWNSFALRF-NH2)
8,77.4 nM,C[C@H](NC(=O)CNC(=O)[C@H](Cc1ccccc1)NC(=O)[C@H](CO)NC(=O)[C@H](CC(N)=O)NC(=O)[C@H](Cc1c[nH]c2ccccc12)NC(=O)[C@H](CC(N)=O)NC(=O)[C@@H](N)Cc1ccc(O)cc1)C(=O)N[C@@H](CCCNC(=N)N)C(=O)N[C@@H](Cc1ccccc1)C(N)=O [ANA8] (H-YNWNSFGARF-NH2)
9,42.3 nM,CC(C)C[C@H](NC(=O)CNC(=O)[C@H](Cc1ccccc1)NC(=O)[C@H](CO)NC(=O)[C@H](CC(N)=O)NC(=O)[C@H](Cc1c[nH]c2ccccc12)NC(=O)[C@H](CC(N)=O)NC(=O)[C@@H](N)Cc1ccc(O)cc1)C(=O)N[C@@H](C)C(=O)N[C@@H](Cc1ccccc1)C(N)=O [ANA9] (H-YNWNSFGLAF-NH2)
10,3.5 nM,CC(C)C[C@H](NC(=O)CNC(=O)[C@H](Cc1ccccc1)NC(=O)[C@H](CO)NC(=O)[C@H](CC(N)=O)NC(=O)[C@H](Cc1c[nH]c2ccccc12)NC(=O)[C@H](CC(N)=O)NC(=O)[C@@H](N)Cc1ccccc1)C(=O)N[C@@H](CCCNC(=N)N)C(=O)N[C@@H](Cc1ccccc1)C(N)=O [ANA11] (H-FNWNSFGLRF-NH2)
11,29.1 nM,CC(C)C[C@H](NC(=O)CNC(=O)[C@H](Cc1ccccc1)NC(=O)[C@H](CO)NC(=O)[C@H](CC(N)=O)NC(=O)[C@H](Cc1c[nH]c2ccccc12)NC(=O)[C@H](CC(=O)O)NC(=O)[C@@H](N)Cc1ccc(O)cc1)C(=O)N[C@@H](CCCNC(=N)N)C(=O)N[C@@H](Cc1ccccc1)C(N)=O [ANA12] (H-YDWNSFGLRF-NH2)
12,140 nM,CC(C)C[C@H](NC(=O)CNC(=O)[C@H](Cc1ccccc1)NC(=O)[C@H](CO)NC(=O)[C@H](CC(=O)O)NC(=O)[C@H](Cc1c[nH]c2ccccc12)NC(=O)[C@H](CC(N)=O)NC(=O)[C@@H](N)Cc1ccc(O)cc1)C(=O)N[C@@H](CCCNC(=N)N)C(=O)N[C@@H](Cc1ccccc1)C(N)=O [ANA13] (H-YNWDSFGLRF-NH2)
13,2.3 nM,CC(C)C[C@H](NC(=O)CNC(=O)[C@H](Cc1ccccc1)NC(=O)[C@@H](NC(=O)[C@H](CC(N)=O)NC(=O)[C@H](Cc1c[nH]c2ccccc12)NC(=O)[C@H](CC(N)=O)NC(=O)[C@@H](N)Cc1ccc(O)cc1)[C@@H](C)O)C(=O)N[C@@H](CCCNC(=N)N)C(=O)N[C@@H](Cc1ccccc1)C(N)=O [ANA14] (H-YNWNTFGLRF-NH2)
14,87.5 nM,CC(C)C[C@H](NC(=O)CNC(=O)[C@H](Cc1ccc(O)cc1)NC(=O)[C@H](CO)NC(=O)[C@H](CC(N)=O)NC(=O)[C@H](Cc1c[nH]c2ccccc12)NC(=O)[C@H](CC(N)=O)NC(=O)[C@@H](N)Cc1ccc(O)cc1)C(=O)N[C@@H](CCCNC(=N)N)C(=O)N[C@@H](Cc1ccccc1)C(N)=O [ANA15] (H-YNWNSYGLRF-NH2)
15,39.9 nM,CC[C@H](C)[C@H](NC(=O)CNC(=O)[C@H](Cc1ccccc1)NC(=O)[C@H](CO)NC(=O)[C@H](CC(N)=O)NC(=O)[C@H](Cc1c[nH]c2ccccc12)NC(=O)[C@H](CC(N)=O)NC(=O)[C@@H](N)Cc1ccc(O)cc1)C(=O)N[C@@H](CCCNC(=N)N)C(=O)N[C@@H](Cc1ccccc1)C(N)=O [ANA16] (H-YNWNSFGIRF-NH2)
16,378 nM,CC(C)C[C@H](NC(=O)CNC(=O)[C@H](Cc1ccccc1)NC(=O)[C@H](CO)NC(=O)[C@H](CC(N)=O)NC(=O)[C@H](Cc1c[nH]c2ccccc12)NC(=O)[C@H](CC(N)=O)NC(=O)[C@@H](N)Cc1ccc(O)cc1)C(=O)N[C@@H](CCCNC(=N)N)C(=O)N[C@@H](Cc1c[nH]cn1)C(N)=O [ANA18] (H-YNWNSFGLRH-NH2)
17,3.6 nM,CC(C)C[C@H](NC(=O)CNC(=O)[C@H](Cc1ccccc1)NC(=O)[C@H](CO)NC(=O)[C@H](CC(N)=O)NC(=O)[C@H](Cc1c[nH]c2ccccc12)NC(=O)[C@H](CC(N)=O)NC(=O)[C@H](N)Cc1ccc(O)cc1)C(=O)N[C@@H](CCCNC(=N)N)C(=O)N[C@@H](Cc1ccccc1)C(N)=O [ANA19]
18,253 nM,CC(C)C[C@H](NC(=O)CNC(=O)[C@@H](Cc1ccccc1)NC(=O)[C@H](CO)NC(=O)[C@H](CC(N)=O)NC(=O)[C@H](Cc1c[nH]c2ccccc12)NC(=O)[C@H](CC(N)=O)NC(=O)[C@@H](N)Cc1ccc(O)cc1)C(=O)N[C@@H](CCCNC(=N)N)C(=O)N[C@@H](Cc1ccccc1)C(N)=O [ANA20]
19,447 nM,CC(C)C[C@H](NC(=O)CNC(=O)[C@H](Cc1ccccc1)NC(=O)[C@H](CO)NC(=O)[C@H](CC(N)=O)NC(=O)[C@H](Cc1c[nH]c2ccccc12)NC(=O)[C@H](CC(N)=O)NC(=O)[C@@H](N)Cc1ccc(O)cc1)C(=O)N[C@@H](CCCNC(=N)N)C(=O)N[C@H](Cc1ccccc1)C(N)=O [ANA21]
20,1 nM,"CC(C)C[C@H](NC(=O)CNC(=O)[C@H](Cc1ccccc1)NC(=O)[C@H](CO)NC(=O)[C@H](CC(N)=O)NC(=O)[C@H](Cc1c[nH]c2ccccc12)NC(=O)[C@H](CC(N)=O)NC(=O)[C@@H](N)Cc1ccc(O)cc1)C(=O)N[C@@H](CCCNC(=N)N)C(=O)N[C@@H](Cc1ccccc1)C(N)=O [KP-10, kisspeptin-10, reference compound]"

row,Structure (SMILES),IC50
1,CC(C)C[C@H](NC(=O)CNC(=O)[C@H](Cc1ccccc1)NC(=O)[C@H](CO)NC(=O)[C@H](CC(N)=O)NC(=O)[C@H](Cc1c[nH]c2ccccc12)NC(=O)[C@H](CC(N)=O)NC(=O)[C@@H](N)Cc1ccc(O)cc1)C(=O)N[C@@H](CCCCN)C(=O)N[C@@H](Cc1ccccc1)C(N)=O [ANA17] (H-YNWNSFGLKF-NH2),9.8 nM
